Positions of bridges follow the written chain, without caps; N, C: chain ends. Non-standard residues stand in square brackets, D forms with d. Primed or numbered codes have the meaning given here. Chains are numbered I, II in the order given. No end group written: not given here. PEG12′ = not defined here; Nle = CCCC[C@H](N)C(=O)O
How the values were obtained:
[1] = system: 3T3-L1 Mouse Adipocytes; assay: Insulin-dependent effect on free fatty acid levels in cultured mouse adipocytes; type: cell-based; details: 3 hours; for Free Fatty Acid Levels, MEAN % ISO, +Insulin: peptide 10 μM + insulin 0.25 nM, percent of isoproterenol (0.1 nM)+insulin (0.25 nM); for Free Fatty Acid Levels, MEAN % ISO, −Insulin: peptide 10 μM alone, percent of isoproterenol (0.1 nM) treated control cells
Procedure: The effect of the peptides on fatty acid metabolism was assessed in the absence and presence of insulin using an assay of free fatty acid levels in cultured cells such as mouse adipocytes. Peptides were initially prepared as 10 mM stock in DMSO and used at a final concentration of 10 μM (0.1% DMSO). […] Insulin (0.25 nM) was used as a partial inhibitor and insulin (10 nM) was used as a potent inhibitor of isoproterenol stimulated fatty acid production. Mouse 3T3-L1 cells purchased from ZenBio (Research Triangle Park, N.C.) were seeded at 3,000 cells per well on 96-well plates in Pre-Adipocyte Medium (Zen-Bio) and grown to confluence at 37° C. in a humidified atmosphere of 5% CO2/95% air. Two days after confluence, cells were placed in Adipocyte Differentiation Medium (Zen-Bio) and cultured for three additional days at 37° C. in a humidified atmosphere of 5% CO2/95% air. The culture medium was then partially replaced with Adipocyte Maintenance Medium (Zen-Bio) and the cells maintained at 37° C. in a humidified atmosphere of 5% CO2/95% air with partial medium replacement every other day. At 12 day of differentiation, 96-well cultures were transferred to Adipocyte Maintenance Medium without insulin and placed at 37° C. in a humidified atmosphere of 5% CO2/95% air for two days. Following this incubation period, the medium was removed from 14 day differentiated cultures and replaced with Assay Buffer (Zen-Bio) containing peptides (10 μM), insulin (0.25 nM or 10 nM), isoproterenol (0.1 nM) as appropriate. […] isoproterenol was added to all wells except untreated controls. Insulin at 0.1 nM and 10 nM was added to control wells. Peptides (10 μM) in the absence or presence of insulin (0.25 nM) were added to test wells. Cells in the presence of compounds were placed at 37° C. in a humidified atmosphere of 5% CO2/95% air for 3 hours. At the end of the final 3 h incubation, conditioned assay buffer was removed from each well and place in a fresh 96-well plate for quantitation of free fatty acid content. Free fatty acid concentrations in the assay buffer samples were determined using a Free Fatty Acid Assay kit (Zen-Bio) according to the manufacturer's instructions using a Cytation 3 plate reader at 540 nm (BioTek, Winooski, VD. Absorbance values were corrected for untreated background and expressed as a percent of isoproterenol (0.1 nM) treated control cells for peptides alone or isoproterenol (0.1 nM)+insulin (0.25 nM) for peptides in presence of insulin (0.25 nM). Treatment with isoproterenol […] alone was used as the free fatty acid level stimulatory control. The relative standard deviation of the isoproterenol control was <10%. […] Free fatty acid levels for insulin (10 nM) treatment were <5% of the isoproterenol control value. Free fatty acid levels for insulin (0.25 nM) treatment were 60-80% of the isoproterenol control value.

[2] = system: 3T3-L1 Mouse Adipocytes; assay: Free fatty acid levels in cultured mouse adipocytes; type: cell-based; details: peptide 10 μM, 1 nM isoproterenol, relative to isoproterenol treated cells
Procedure: The effect of the peptides on fatty acid metabolism can be assessed using an assay of free fatty acid levels in cultured cells such as mouse adipocytes. Peptides were initially prepared as 10 mM stock in DMSO and used at a final concentration of 10 μM (0.1% DMSO). […] Mouse 3T3-L1 cells purchased from ZenBio were seeded at 3,000 cells per well in 96-well plates in Pre-adipocyte Medium (Zen-Bio) and grown to confluence at 37° C. in a humidified atmosphere of 5% CO2/95% air. Two days after confluence, cells were placed in Adipocyte Differentiation Medium (Zen-Bio) and cultured for three additional days at 37° C. in a humidified atmosphere of 5% CO2/95% air. The culture media was then replaced with Adipocyte Maintenance Medium (Zen-Bio) and the cells maintained for an additional 9-12 days at 37° C. in a humidified atmosphere of 5% CO2/95% air with partial medium replacement every other day. Following 12-15 days of differentiation, test peptides were added at a final concentration of 10 μM in 0.1% DMSO and incubated for 20-22 hours in Adipocyte Maintenance Medium at 37° C. in a humidified atmosphere of 5% CO2/95% air. After 20-22 hours, 1 nM isoproterenol was added to all wells except untreated controls and test peptides were replenished. Insulin at 100 nM was added to control wells. Cells were incubated for 3 hours in Assay Buffer (Zen-Bio) at 37° C. in a humidified atmosphere of 5% CO2/95% air. Free fatty acid concentrations in the media were determined using a Free Fatty Acid Assay kit (Zen-Bio) according to the manufacturer's instructions using a Cytation 3 plate reader at 540 nm (BioTek, Winooski, Vt.). Absorbance values were corrected for untreated background and expressed relative to isoproterenol treated cells. Treatment with isoproterenol (1 nM) alone was used as the free fatty acid level stimulatory control. The relative standard deviation of the isoproterenol control was <10%. […] Free fatty acid levels for insulin (100 nM) treatment were <5% of the isoproterenol control value.
The effect of the peptides on fatty acid metabolism was assessed using an assay of free fatty acid levels in cultured cells such as mouse adipocytes. Peptides were initially prepared as 10 mM stock in DMSO and used at a final concentration of 10 μM (0.1% DMSO). […] Mouse 3T3-L1 cells purchased from ZenBio were seeded at 3,000 cells per well in 96-well plates in Pre-adipocyte Medium (Zen-Bio) and grown to confluence at 37° C. in a humidified atmosphere of 5% CO2/95% air. Two days after confluence, cells were placed in Adipocyte Differentiation Medium (Zen-Bio) and cultured for three additional days at 37° C. in a humidified atmosphere of 5% CO2/95% air. The culture media was then replaced with Adipocyte Maintenance Medium (Zen-Bio) and the cells maintained for an additional 9-12 days at 37° C. in a humidified atmosphere of 5% CO2/95% air with partial medium replacement every other day. Following 12-15 days of differentiation, test peptides were added at a final concentration of 10 μM in 0.1% DMSO and incubated for 20-22 hours in Adipocyte Maintenance Medium at 37° C. in a humidified atmosphere of 5% CO2/95% air. After 20-22 hours, 1 nM isoproterenol was added to all wells except untreated controls and test peptides were replenished. Insulin at 100 nM was added to control wells. Cells were incubated for 3 hours in Assay Buffer (Zen-Bio) at 37° C. in a humidified atmosphere of 5% CO2/95% air. Free fatty acid concentrations in the media were determined using a Free Fatty Acid Assay kit (Zen-Bio) according to the manufacturer's instructions using a Cytation 3 plate reader at 540 nm (BioTek, Winooski, Vt.). Absorbance values were corrected for untreated background and expressed relative to isoproterenol treated cells. Treatment with isoproterenol (1 nM) alone was used as the free fatty acid level stimulatory control. The relative standard deviation of the isoproterenol control was <10%. […]

Substance | Free Fatty Acid Levels, MEAN % ISO, +Insulin [1] | Free Fatty Acid Levels, MEAN % ISO, −Insulin [1] | Free Fatty Acid Levels, MEAN % ISO ([2]; Table 6) | Free Fatty Acid Levels, MEAN % ISO ([2]; Table 12) | Free Fatty Acid Levels, MEAN % ISO, +Insulin ([1]; listed as 5) | Free Fatty Acid Levels, MEAN % ISO, −Insulin ([1]; listed as 5)
MRVIRMCLGVGLLGDLAG [SEQ ID NO: 2] | 60.5% | 98.8% | 26.4% | 26% | – | –
R(dA)IR(Nle)SLNVGLLGEL(dA) (R[dA]IR[Nle]SLNVGLLGEL[dA]) [SEQ ID NO: 15] | 112.6% | 97.6% | – | 101% | – | –
RVIR(Nle)CLNVGLLGEL(dA)G (RVIR[Nle]CLNVGLLGEL[dA]G) [SEQ ID NO: 6] | 66.9% | 93.6% | – | 78% | – | –
RVIR(Nle)SLNVGLEGEL(dA) (RVIR[Nle]SLNVGLEGEL[dA]) [SEQ ID NO: 14] | 71.9% | 89.9% | – | 64% | – | –
RVIR(Nle)SLNVGLLGEL(dA)G (RVIR[Nle]SLNVGLLGEL[dA]G) [SEQ ID NO: 8] | 74.9% | 69.3% | – | 64% | – | –
RVIRMCLGVGLLGDL(dA)G (RVIRMCLGVGLLGDL[dA]G) [SEQ ID NO: 4] | 36.6% | 92.9% | 20.1% | 20% | – | –
RVIRMCLGVGLLGDLAG (disulfide I:6-II:6) [SEQ ID NO: 26] | 33.4% | 93.5% | – | 39% | – | –
RVIRMCLGVGLLGDLAG [SEQ ID NO: 3] | 37.1% | 98.0% | 19.7% | 20% | – | –
RVIRMCLGVGLLGDLAGK{PEG12} (RVIRMCLGVGLLGDLAGK(PEG12′)) [SEQ ID NO: 17] | 35.9% | 102% | – | 31% | – | –
RVIRMCLGVGLLGDLAGK{PEG12} (chain 1 RVIRMCLGVGLLGDLAGK(PEG12′); chain 2 RVIRMCLGVGLLGDLAGK(PEG12′); disulfide I:6-II:6) [SEQ ID NO: 28] | 33.4% | 80.7% | – | – | – | –
RVIRMCLNNGLLGEL(dA)G (RVIRMCLNNGLLGEL[dA]G) [SEQ ID NO: 9] | 41.0% | 95.2% | – | 30% | – | –
RVIRMCLNNGLNGEL(dA)E (RVIRMCLNNGLNGEL[dA]E) [SEQ ID NO: 23] | 43.9% | 99.4% | – | 61% | – | –
RVIRMCLNVGLLGEL(dA)E (RVIRMCLNVGLLGEL[dA]E) [SEQ ID NO: 12] | 41.2% | 92.8% | – | 22% | – | –
RVIRMCLNVGLLGEL(dA)G [SEQ ID NO: 5] (RVIRMCLNVGLLGEL[dA]G) | – | – | 18.3% | 18% | 37.0% | 94.3%
RVIRMCLNVGLNGEL(dA)G (RVIRMCLNVGLNGEL[dA]G) [SEQ ID NO: 11] | 44.0% | 65.5% | – | 36% | – | –
RVIRMCLNVGNLGEL(dA)G (RVIRMCLNVGNLGEL[dA]G) [SEQ ID NO: 10] | 63.2% | 90.7% | – | 29% | – | –
RVIRMSLNVGLEGEL(dA) (RVIRMSLNVGLEGEL[dA]) [SEQ ID NO: 13] | 78.4% | 89.5% | – | 71% | – | –
RVIRMSLNVGLLGEL(dA)G (RVIRMSLNVGLLGEL[dA]G) [SEQ ID NO: 7] | 74.5% | 91.1% | – | 77% | – | –

Reference: patent publication US20220226484A1, “THERAPEUTIC PEPTIDES” (COHBAR, INC., priority 2019, published 2022)
